Measurements: patent publication EP2665736B1, “CORONA-LIKE (GUANIDYL)-OLIGOSACCHARIDIC DERIVATIVES AS CELL-P[…] FOR INTRACELLULAR DELIVERY OF COLLOIDAL T[…]” (Universita' Degli Studi Di Padova, priority 2011, dated 2012)
pIC50: −log10 of the molar value.

What was measured:
MC3T3-E1 cells = assay: Cytotoxicity test (MTT cell viability); type: cell-based, murine; settings: 0 to 100 µM, 24 hours incubation plus 48 hours growth
Method: (§1) The human MCF-7 breast adenocarcinoma and murine MC3T3-E1 embryonic fibroblast cell lines were growth in RPMI 1640 and DMEM medium, respectively, supplemented with 10% heated inactivated foetal bovine serum (FBS), 1% L-glutamine, 1% penicillin-streptomycin-amphotericin B mixture. All cells were maintained at 37 °C in humidified 5% CO2 atmosphere and splitted every 2-3 day.
(§2) MCF-7 and MC3T3-E1 cells were plated in 96-well flat bottomed microassay plates (1 × 10^4 cells/well) and grown for 24 hours. After complete adhesion, (arginyl)7-maltotriosyl-N-acetyl-amino-dodecanoic acid or 2 kDa polyethylenimine (PEI) as control were added to the culture media at increasing concentrations: from 0 to 100 µM. The cells were incubated for 24 hours at 37°C and then the medium was discarded by aspiration and replaced with 200 µl of fresh medium. The cells were grown for further 48 hours. Twenty microliters of 5 mg/mL of 3-(4,5-dimethylthiazol-2-yl)-2,5-diphenyltetrazolium bromide (MTT) in D-PBS were added to each well. […] The plates were gently shaken for 30 min and absorbance was measured at 570 nm with a reference wavelength of 630 nm. The cell viability was expressed as a percent viability of treated cells against untreated cells used as control. […]

MCF-7 cells = assay: Cytotoxicity test (MTT cell viability); type: cell-based, human; settings: 0 to 100 µM, 24 hours incubation plus 48 hours growth
Method: as §1, §2

## (arginyl)7-maltotriosyl-N-acetyl-amino-dodecanoic acid
MC3T3-E1 cells
  pIC50: < 4.00
MCF-7 cells
  pIC50: < 4.00
